# Test system: EGFR (Human), P00533 [T790M/L858R]
# Details: h1975
# Chain of EGFR (Human), P00533 [T790M/L858R] (P00533 whole entry T790M/L858R, looked up): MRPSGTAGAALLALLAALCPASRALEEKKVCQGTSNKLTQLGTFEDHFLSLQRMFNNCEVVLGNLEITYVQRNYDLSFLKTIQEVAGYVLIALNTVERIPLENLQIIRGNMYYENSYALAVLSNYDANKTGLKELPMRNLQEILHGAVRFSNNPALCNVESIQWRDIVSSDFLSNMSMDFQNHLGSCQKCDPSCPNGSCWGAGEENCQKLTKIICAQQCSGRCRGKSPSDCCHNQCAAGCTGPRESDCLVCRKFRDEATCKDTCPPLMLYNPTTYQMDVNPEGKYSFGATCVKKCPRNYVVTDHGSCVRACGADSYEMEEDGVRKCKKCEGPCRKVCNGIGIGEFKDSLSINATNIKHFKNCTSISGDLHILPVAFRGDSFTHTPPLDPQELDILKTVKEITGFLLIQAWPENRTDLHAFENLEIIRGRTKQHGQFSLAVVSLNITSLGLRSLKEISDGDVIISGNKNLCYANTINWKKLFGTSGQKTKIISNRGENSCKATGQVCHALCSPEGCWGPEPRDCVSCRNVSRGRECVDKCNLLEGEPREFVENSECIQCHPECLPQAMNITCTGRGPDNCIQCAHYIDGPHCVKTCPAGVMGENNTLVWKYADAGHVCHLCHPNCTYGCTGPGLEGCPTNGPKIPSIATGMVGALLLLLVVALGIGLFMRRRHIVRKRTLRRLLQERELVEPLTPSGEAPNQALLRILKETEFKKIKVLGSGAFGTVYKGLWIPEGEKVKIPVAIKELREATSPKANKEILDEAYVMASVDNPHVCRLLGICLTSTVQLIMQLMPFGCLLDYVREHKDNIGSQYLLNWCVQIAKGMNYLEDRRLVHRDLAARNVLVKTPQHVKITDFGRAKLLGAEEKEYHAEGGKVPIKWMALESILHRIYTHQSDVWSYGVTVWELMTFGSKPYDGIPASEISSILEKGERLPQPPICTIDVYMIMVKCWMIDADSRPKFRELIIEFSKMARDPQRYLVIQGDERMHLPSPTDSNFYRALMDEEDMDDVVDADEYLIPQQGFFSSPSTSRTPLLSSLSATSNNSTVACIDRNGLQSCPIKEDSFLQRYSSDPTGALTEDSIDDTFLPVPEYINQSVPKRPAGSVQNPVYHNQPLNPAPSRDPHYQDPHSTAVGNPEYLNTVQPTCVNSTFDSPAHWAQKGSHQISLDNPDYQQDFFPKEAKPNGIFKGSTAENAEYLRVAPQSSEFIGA
row,SMILES,GI50 [nM]
1,C=CC(=O)Nc1cccc(Nc2nc(Nc3ccccc3OC)ncc2C(F)(F)F)c1,100 to 500
2,C=CC(=O)Nc1cccc(Oc2nc(Nc3ccc(OC)c(OC)c3OC)ncc2C(F)(F)F)c1,100 to 500
3,C=CC(=O)Nc1cccc(Oc2nc(Nc3cccc(OC)c3OC)ncc2Br)c1,500 to 1000
4,C=CC(=O)Nc1cccc(Nc2nc(Nc3ccccc3OC)ncc2Br)c1,500 to 1000
5,C=CC(=O)Nc1cccc(Oc2nc(Nc3ccc(OC)c(OC)c3OC)ncc2Cl)c1,100 to 500
6,C=CC(=O)Nc1cccc(Nc2nc(Nc3ccc(OC)c(OC)c3OC)ncc2C(F)(F)F)c1,100 to 500
7,C=CC(=O)Nc1cccc(Oc2nc(Nc3ccc(OC)cc3OC)ncc2C(F)(F)F)c1,100 to 500
8,C=CC(=O)Nc1cccc(Oc2nc(Nc3ccc(OC)cc3OC)ncc2Br)c1,500 to 1000

# Test system: EGFR (human), P00533 [delE746-A750]
# Details: hcc827
# Chain of EGFR (human), P00533 [delE746-A750] (P00533 whole entry, looked up, stated change not applied): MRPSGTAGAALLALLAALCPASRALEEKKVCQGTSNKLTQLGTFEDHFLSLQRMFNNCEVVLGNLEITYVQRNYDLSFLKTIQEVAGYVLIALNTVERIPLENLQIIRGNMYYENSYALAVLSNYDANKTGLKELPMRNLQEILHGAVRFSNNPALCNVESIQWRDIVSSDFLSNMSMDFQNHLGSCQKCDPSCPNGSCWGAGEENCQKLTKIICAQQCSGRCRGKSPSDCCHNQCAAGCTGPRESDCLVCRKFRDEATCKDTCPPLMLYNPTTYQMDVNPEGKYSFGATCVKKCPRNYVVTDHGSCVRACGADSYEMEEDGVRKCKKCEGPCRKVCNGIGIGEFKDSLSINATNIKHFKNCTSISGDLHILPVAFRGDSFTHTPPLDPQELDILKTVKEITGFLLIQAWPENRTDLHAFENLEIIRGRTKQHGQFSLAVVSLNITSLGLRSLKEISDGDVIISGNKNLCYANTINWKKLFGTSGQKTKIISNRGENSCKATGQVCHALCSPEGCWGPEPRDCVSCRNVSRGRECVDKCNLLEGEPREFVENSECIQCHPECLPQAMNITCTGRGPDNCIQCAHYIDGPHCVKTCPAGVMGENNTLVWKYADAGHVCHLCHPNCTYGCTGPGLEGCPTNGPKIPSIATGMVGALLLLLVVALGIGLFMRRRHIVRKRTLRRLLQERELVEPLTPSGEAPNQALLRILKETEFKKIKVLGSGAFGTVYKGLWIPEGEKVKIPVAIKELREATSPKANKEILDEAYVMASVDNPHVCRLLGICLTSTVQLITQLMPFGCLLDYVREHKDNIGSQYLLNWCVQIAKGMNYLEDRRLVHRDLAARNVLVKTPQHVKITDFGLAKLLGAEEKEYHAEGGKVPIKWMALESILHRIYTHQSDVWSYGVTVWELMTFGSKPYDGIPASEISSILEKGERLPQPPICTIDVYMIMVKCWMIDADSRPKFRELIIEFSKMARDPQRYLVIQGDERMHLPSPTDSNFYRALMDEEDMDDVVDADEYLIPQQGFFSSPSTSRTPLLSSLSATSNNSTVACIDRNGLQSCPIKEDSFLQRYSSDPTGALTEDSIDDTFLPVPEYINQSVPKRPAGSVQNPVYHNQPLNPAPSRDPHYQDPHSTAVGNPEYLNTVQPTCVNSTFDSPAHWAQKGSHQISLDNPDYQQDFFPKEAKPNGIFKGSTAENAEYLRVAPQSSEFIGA
row,SMILES,GI50 [nM]
1,C=CC(=O)Nc1cccc(Nc2nc(Nc3ccccc3OC)ncc2C(F)(F)F)c1,10 to 100
2,C=CC(=O)Nc1cccc(Oc2nc(Nc3ccccc3OC)ncc2C(F)(F)F)c1,100 to 500
3,C=CC(=O)Nc1cccc(Nc2nc(Nc3ccc(OC)cc3OC)ncc2Cl)c1,500 to 1000
4,C=CC(=O)Nc1cccc(Oc2nc(Nc3ccc(OC)c(OC)c3OC)ncc2C(F)(F)F)c1,100 to 500
5,C=CC(=O)Nc1cccc(Nc2nc(Nc3ccc(OC)c(OC)c3OC)ncc2Br)c1,100 to 500
6,C=CC(=O)Nc1cccc(Oc2nc(Nc3cccc(OC)c3OC)ncc2Br)c1,500 to 1000
7,C=CC(=O)Nc1cccc(Oc2nc(Nc3ccccc3OC)ncc2F)c1,100 to 500
8,C=CC(=O)Nc1cccc(Nc2nc(Nc3ccccc3OC)ncc2Br)c1,500 to 1000
9,C=CC(=O)Nc1cccc(Oc2nc(Nc3ccc(OC)c(OC)c3OC)ncc2Cl)c1,100 to 500
10,C=CC(=O)Nc1cccc(Nc2nc(Nc3ccccc3OC)ncc2Cl)c1,500 to 1000
11,C=CC(=O)Nc1cccc(Nc2nc(Nc3cccc(OC)c3OC)ncc2C(F)(F)F)c1,500 to 1000
12,C=CC(=O)Nc1cccc(Nc2nc(Nc3ccc(OC)c(OC)c3OC)ncc2C(F)(F)F)c1,10 to 100
13,C=CC(=O)Nc1cccc(Nc2nc(Nc3ccc(OC)cc3OC)ncc2Br)c1,100 to 500
14,C=CC(=O)Nc1cccc(Oc2nc(Nc3ccc(OC)cc3OC)ncc2C(F)(F)F)c1,100 to 500

# Reference: the Kinase Knowledgebase extract (Sharma et al. 2016)
